The test addresses Thymidine phosphorylase (Escherichia coli K-12, UniProt P07650). The experiment in a line: Inhibition of Escherichia coli thymidine phosphorylase pretreated for 10 mins followed by substrate addition measured at 10 mins interval for 30 mins by spectrophotometric method.

One may read the IC50 as the concentration at which inhibition is half-maximal.

Sequence of Thymidine phosphorylase (P07650 whole entry): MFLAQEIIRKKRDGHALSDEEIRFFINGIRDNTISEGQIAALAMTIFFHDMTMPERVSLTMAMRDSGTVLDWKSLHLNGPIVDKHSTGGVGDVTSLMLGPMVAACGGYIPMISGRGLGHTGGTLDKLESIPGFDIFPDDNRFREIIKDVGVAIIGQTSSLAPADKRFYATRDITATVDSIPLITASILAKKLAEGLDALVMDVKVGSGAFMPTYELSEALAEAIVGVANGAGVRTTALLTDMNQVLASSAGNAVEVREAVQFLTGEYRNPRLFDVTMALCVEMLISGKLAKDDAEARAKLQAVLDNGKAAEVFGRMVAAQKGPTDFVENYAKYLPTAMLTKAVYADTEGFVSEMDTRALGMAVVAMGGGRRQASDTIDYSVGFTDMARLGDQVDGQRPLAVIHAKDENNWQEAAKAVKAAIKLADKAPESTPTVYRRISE

In the case of `Oc1ccc(O)c(-c2nnc(-c3ccc(C(c4c[nH]c5ccc(Cl)cc45)c4c[nH]c5ccc(Cl)cc45)cc3)o2)c1`, for the setting “read-out: IC50”, the IC50 came to 6.1 µM.

Consider `Clc1cccc(-c2nnc(-c3ccc(C(c4c[nH]c5ccc(Cl)cc45)c4c[nH]c5ccc(Cl)cc45)cc3)o2)c1`, for which the IC50 (read-out: IC50) came to 54.6 µM.

Turning to `Oc1ccc(-c2nnc(-c3ccc(C(c4c[nH]c5ccc(Cl)cc45)c4c[nH]c5ccc(Cl)cc45)cc3)o2)c(O)c1`, the IC50 (read-out: IC50) amounted to 3.5 µM.

In the case of `Fc1cccc(-c2nnc(-c3ccc(C(c4c[nH]c5ccc(Cl)cc45)c4c[nH]c5ccc(Cl)cc45)cc3)o2)c1`, the IC50 (read-out: IC50) is 29.4 µM.

`Clc1ccc2[nH]cc(C(c3ccc(-c4nnc(-c5ccccn5)o4)cc3)c3c[nH]c4ccc(Cl)cc34)c2c1`: where the note is “read-out: IC50”, the IC50 turned out to be 38.4 µM.

In the case of `Cc1ccc(-c2nnc(-c3ccc(C(c4c[nH]c5ccc(Cl)cc45)c4c[nH]c5ccc(Cl)cc45)cc3)o2)cc1`, the IC50 result is reported as “Not Active”.

Turning to `Cc1ccccc1-c1nnc(-c2ccc(C(c3c[nH]c4ccc(Cl)cc34)c3c[nH]c4ccc(Cl)cc34)cc2)o1`, the IC50 result is “Not Active”.

Take `Fc1ccccc1-c1nnc(-c2ccc(C(c3c[nH]c4ccc(Cl)cc34)c3c[nH]c4ccc(Cl)cc34)cc2)o1`: under “read-out: IC50”, the IC50 is 17.3 µM.

As to `O=[N+]([O-])c1ccccc1-c1nnc(-c2ccc(C(c3c[nH]c4ccc(Cl)cc34)c3c[nH]c4ccc(Cl)cc34)cc2)o1`, under “read-out: IC50”, the IC50 was determined as 64.2 µM.

In the case of `Fc1ccc(-c2nnc(-c3ccc(C(c4c[nH]c5ccc(Cl)cc45)c4c[nH]c5ccc(Cl)cc45)cc3)o2)cc1`, the IC50 (read-out: IC50) was determined as 9.1 µM.

In the case of `Oc1ccc(-c2nnc(-c3ccc(C(c4c[nH]c5ccc(Cl)cc45)c4c[nH]c5ccc(Cl)cc45)cc3)o2)cc1`, where the note is “read-out: IC50”, the IC50 is 24.5 µM.

Take `Oc1ccc(-c2nnc(-c3ccc(C(c4c[nH]c5ccc(Cl)cc45)c4c[nH]c5ccc(Cl)cc45)cc3)o2)cc1O`: the IC50 (read-out: IC50) was 12.2 µM.

Consider `Oc1cccc(-c2nnc(-c3ccc(C(c4c[nH]c5ccc(Cl)cc45)c4c[nH]c5ccc(Cl)cc45)cc3)o2)c1O`, for which the IC50 (read-out: IC50) was determined as 9.3 µM.

As for `COc1ccc(O)c(-c2nnc(-c3ccc(C(c4c[nH]c5ccc(Cl)cc45)c4c[nH]c5ccc(Cl)cc45)cc3)o2)c1`, for the setting “read-out: IC50”, the IC50 came to 45.2 µM.

`Clc1ccc(-c2nnc(-c3ccc(C(c4c[nH]c5ccc(Cl)cc45)c4c[nH]c5ccc(Cl)cc45)cc3)o2)cc1`: the IC50 (read-out: IC50) worked out at 46.2 µM.

In the case of `Oc1cccc(-c2nnc(-c3ccc(C(c4c[nH]c5ccc(Cl)cc45)c4c[nH]c5ccc(Cl)cc45)cc3)o2)c1`, the half-inhibitory concentration (IC50) (read-out: IC50) amounted to 53.5 µM.

On to `Clc1ccc2[nH]cc(C(c3ccc(-c4nnc(-c5cccnc5)o4)cc3)c3c[nH]c4ccc(Cl)cc34)c2c1`, for which the IC50 entry is recorded as “Not Active”.

`Clc1ccc2[nH]cc(C(c3ccc(-c4nnc(-c5ccncc5)o4)cc3)c3c[nH]c4ccc(Cl)cc34)c2c1`: the half-inhibitory concentration (IC50) result is reported as “Not Active”.

As for `Cc1cccc(-c2nnc(-c3ccc(C(c4c[nH]c5ccc(Cl)cc45)c4c[nH]c5ccc(Cl)cc45)cc3)o2)c1`, the IC50 result is reported as “Not Active”.

For `COc1ccc(-c2nnc(-c3ccc(C(c4c[nH]c5ccc(Cl)cc45)c4c[nH]c5ccc(Cl)cc45)cc3)o2)c(O)c1`, the IC50 (read-out: IC50) is 35.2 µM.

In the case of `Oc1ccccc1-c1nnc(-c2ccc(C(c3c[nH]c4ccc(Cl)cc34)c3c[nH]c4ccc(Cl)cc34)cc2)o1`, the IC50 (read-out: IC50) was 43.5 µM.

`COc1ccc(-c2nnc(-c3ccc(C(c4c[nH]c5ccc(Cl)cc45)c4c[nH]c5ccc(Cl)cc45)cc3)o2)cc1O`: the IC50 (read-out: IC50) turned out to be 33.5 µM.

Consider `Clc1ccc2[nH]cc(C(c3ccc(-c4nnc(-c5ccccc5Cl)o4)cc3)c3c[nH]c4ccc(Cl)cc34)c2c1`, for which the IC50 (read-out: IC50) was found to be 29.3 µM.

Take `O=[N+]([O-])c1cccc(-c2nnc(-c3ccc(C(c4c[nH]c5ccc(Cl)cc45)c4c[nH]c5ccc(Cl)cc45)cc3)o2)c1`: the IC50 result is listed as “Not Active”.

For the molecule `O=[N+]([O-])c1ccc(-c2nnc(-c3ccc(C(c4c[nH]c5ccc(Cl)cc45)c4c[nH]c5ccc(Cl)cc45)cc3)o2)cc1`, the IC50 result was “Not Active”.

Source of the values: ChEMBL document CHEMBL4118233, “Rational design of bis-indolylmethane-oxadiazole hybrids as inhibitors of thymidine phosphorylase” (Bioorg Med Chem, 2018).
